Entries after “also recorded” stand apart in the source; their conditions may differ. Residues, ends and D or L forms follow the SMILES beside them.
Columns and labels:
human TRPV6 channels = target: T1, human TRPV6 channels (Homo sapiens, UniProt Q9H1D0); test: whole-cell patch clamp of TRPV6/EGFP transfected HEK-293 cells; assay type: cell-based; conditions: for reduction of TRPV6 current amplitude / reduction of maximum TRPV6 current amplitude: p<0.05; for Kd: washout not possible under voltage ramp stimulation, Kd estimated, read-out: K1 (Kd estimated to be equal to K1); for reduction of maximum TRPV6 current amplitude: n = 5, successive exposures
T1 construct: containing cDNA for the protein-coding region of TRPV6; expressed in transfected cells; host or cells: HEK-293 cells transiently transfected with pdi-CaT-L (pCAGGS backbone, gift of V. Flockerzi)
T1 sequence (Q9H1D0 41-765 limits assumed): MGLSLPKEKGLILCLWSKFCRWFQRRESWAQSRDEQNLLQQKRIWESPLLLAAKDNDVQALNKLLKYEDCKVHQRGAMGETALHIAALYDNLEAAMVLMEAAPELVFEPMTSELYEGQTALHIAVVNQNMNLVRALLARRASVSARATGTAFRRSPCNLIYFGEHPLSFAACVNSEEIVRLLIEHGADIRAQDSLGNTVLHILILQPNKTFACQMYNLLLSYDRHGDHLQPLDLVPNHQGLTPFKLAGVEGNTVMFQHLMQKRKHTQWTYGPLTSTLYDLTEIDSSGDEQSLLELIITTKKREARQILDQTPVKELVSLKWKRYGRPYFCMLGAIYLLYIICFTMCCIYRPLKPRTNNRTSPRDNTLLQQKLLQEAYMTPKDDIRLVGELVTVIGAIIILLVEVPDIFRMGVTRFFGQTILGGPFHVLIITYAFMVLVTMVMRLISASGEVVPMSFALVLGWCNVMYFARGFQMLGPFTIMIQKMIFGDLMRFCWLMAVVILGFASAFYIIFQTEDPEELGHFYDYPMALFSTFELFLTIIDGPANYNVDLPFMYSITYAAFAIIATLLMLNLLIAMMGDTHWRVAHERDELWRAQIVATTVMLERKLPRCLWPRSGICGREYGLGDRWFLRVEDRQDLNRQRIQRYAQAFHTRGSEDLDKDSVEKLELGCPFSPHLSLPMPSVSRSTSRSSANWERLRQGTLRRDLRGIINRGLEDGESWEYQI
Description: Human HEK-293 cells (6–9 passages) were plated in a 24-well plate at a density of 5×10^5 cells per well, 24 hours before transfection. Each well was diluted in serum-free medium and incubated for 5 minutes at room temperature then combined slowly and incubated at room temperature. After a 20 minute incubation, cells were exposed to the transfection complex consisting of 0.5 µg of pdi-CaT-L plasmid DNA (a gift from Dr. V. Flockerzi, Experimentelle und Klinische Pharmakologie und Toxikologie der Universität des Saarlandes) and 1.5 µl lipofectamine 2000 reagent. pdi-CaT-L is a bicistronic expression vector containing cDNA for the protein-coding region of TRPV6 and the mutated Green Fluorescent Protein (S65T; EGPF) separated by an […] (β-actin promoter /KOZAK/TRPV6/IRES/EGFP in pCAGGS). The IRES was derived from encephalomyocarditis virus. Transfection of HEK-293 cells with the bicistronic vector allows for simultaneous production of TRPV6 and EGFP and selection of fluorescent cells producing TRPV6 for the electrophysiology measurements. From previous investigations using this plasmid and other similar plasmids, it was determined that the TRPV6 channel is highly expressed, localized at the membrane surface, glycosylated and constitutively active giving rise to a Ca^2+-invoked inward current [33]–[35].
Whole-cell patch clamp recordings were performed on HEK-293 cells expressing TRPV6 and EGFP. Transfected cells were readily identified from non-transfected cells using a fluorescent Axiovert 135 microscope […]. The recordings were performed using an Axopatch 1D amplifier controlled and monitored using pClamp 9 software (MDS Analytical Technologies, Sunnyvale, CA, USA). Data sets were digitized at 20 kHz and filtered at 2 kHz. […] The extracellular solution contained: 145 mM NaCl, 10 mM CsCl, 10 mM CaCl2, 2 mM MgCl2, 2.8 mM KCl, 10 mM HEPES and 10 mM glucose with pH adjusted to 7.2 using NaOH.
To isolate TRPV6 currents, HEK-293 and transfected HEK-293 cells were voltage-clamped at +50 mV with a 50 ms linear voltage ramp (−110 mV to +90 mV) protocol applied in the presence or absence of a TRPV6 inhibitor, La^3+ ions (10 µM), SOR-C27, SOR-C13 or SOR-C27-Cy5.5. Although the La^3+ ion is a non-specific inhibitor there is currently no known selective inhibitor of the TRPV6 channel. The ramp was averaged over 10 times at 2 s intervals between ramps.
Analysis was performed off-line using IGOR (WaveMetrics Inc., Lake Oswego, OR, USA) software. The statistical significance was determined with paired Students' t-test (two-tailed). All values are expressed as mean ± SEM with a p-value of <0.05 considered significant.

[1] = solubility in NMR samples; assay type: physicochemical; conditions: 10 mM in 90/10 H2O/D2O, 50 mM potassium phosphate pH 6.6; with 200 mM NaCl; with 100 mM DPC; 2 mM with 100 mM SDS; visual statement, 274 to 308 K
Description: Nuclear magnetic resonance (NMR) spectroscopic data was acquired to determine the conformational structural features of the SOR-C27 peptide under various conditions. A stock solution (sample #1) of 10 mM SOR-C27 was prepared in 90/10 H2O/D2O with 50 mM potassium phosphate buffer at pH 6.6. From sample #1, three additional samples were prepared: #2) stock solution with 200 mM NaCl, #3) stock solution with 100 mM dodecylphosphocholine (DPC) and #4) stock solution diluted to 2 mM with 100 mM sodium dodecylsulfate (SDS).

[2] = system: HEK-293 cells transfected with TRPV6; conditions: low doses; cited from earlier work
Text: (§1) The link between tumor growth and over-expression of TRPV6 may involve the potentiation of calcium-dependent cell proliferation and inhibition of apoptosis. […] In the LNCaP prostate cancer cell line, up-regulation of TRPV6 augments proliferation and cell survival while retarding apoptosis through a mechanism that appears to involve activation of the nuclear factor of activated T-cell (NFAT) transcription ...

TRPV6 = conditions: breast cancer cells; cited from earlier work
Text: as §1

[3] = Table 1; no reference given; cited from earlier work
Text: Table 1 Amino acid sequences of parent soricidin (accession number P0C2P6), SOR-C27 and SOR-C13. | column: Activity

TRPV6 channels = conditions: cited from earlier work
Text: Herein, we described the TRPV6 binding properties of SOR-C13 and SOR-C27 and the ability of these peptides to target human ovarian tumors in ...

[4] = target: T2, SOR-C27 (soricidin C-terminal peptide) (Blarina brevicauda); test: whole-cell patch clamp
T2 chain: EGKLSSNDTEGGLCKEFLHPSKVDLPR

[5] = target: T3, SOR-C13 (soricidin C-terminal peptide) (Blarina brevicauda); test: whole-cell patch clamp
T3 chain: KEFLHPSKVDLPR

In the case of `CC(C)C[C@H](NC(=O)[C@H](Cc1ccccc1)NC(=O)[C@H](CCC(=O)O)NC(=O)[C@@H](N)CCCCN)C(=O)N[C@@H](Cc1c[nH]cn1)C(=O)N1CCC[C@H]1C(=O)N[C@@H](CO)C(=O)N[C@@H](CCCCN)C(=O)N[C@H](C(=O)N[C@@H](CC(=O)O)C(=O)N[C@@H](CC(C)C)C(=O)N1CCC[C@H]1C(=O)N[C@@H](CCCNC(=N)N)C(=O)O)C(C)C` [SOR-C13] (H-KEFLHPSKVDLPR-OH), the “reduction of TRPV6 current amplitude” value (human TRPV6 channels; 83.5 nM, n = 9, mean ± SEM) is reported as 18±4.0%, the “reduction of TRPV6 current amplitude” value (human TRPV6 channels; 417.5 nM, n = 9, mean ± SEM) is reported as 22±4% and the “reduction of TRPV6 current amplitude” value (human TRPV6 channels; 835 nM, n = 7, mean ± SEM) is reported as 24±4%. The “reduction of TRPV6 current amplitude” value (human TRPV6 channels; 25 µM, n = 7, mean ± SEM) was 25±5%.

For `CC(C)C[C@H](NC(=O)[C@H](Cc1ccccc1)NC(=O)[C@H](CCC(=O)O)NC(=O)[C@@H](N)CCCCN)C(=O)N[C@@H](Cc1cnc[nH]1)C(=O)N1CCC[C@H]1C(=O)N[C@@H](CO)C(=O)N[C@@H](CCCCN)C(=O)N[C@H](C(=O)N[C@@H](CC(=O)O)C(=O)N[C@@H](CC(C)C)C(=O)N1CCC[C@H]1C(=O)N[C@@H](CCCNC(=N)N)C(=O)O)C(C)C` [SOR-C13] (H-KEFLHPSKVDLPR-OH), the Kd (human TRPV6 channels) was 14 ± 1.3 nM.

With `CC(C)C[C@H](NC(=O)CNC(=O)CNC(=O)[C@H](CCC(=O)O)NC(=O)[C@@H](NC(=O)[C@H](CC(=O)O)NC(=O)[C@H](CC(N)=O)NC(=O)[C@H](CO)NC(=O)[C@H](CO)NC(=O)[C@H](CC(C)C)NC(=O)[C@H](CCCCN)NC(=O)CNC(=O)[C@@H](N)CCC(=O)O)[C@@H](C)O)C(=O)N[C@@H](CS)C(=O)N[C@@H](CCCCN)C(=O)N[C@@H](CCC(=O)O)C(=O)N[C@@H](Cc1ccccc1)C(=O)N[C@@H](CC(C)C)C(=O)N[C@@H](Cc1c[nH]cn1)C(=O)N1CCC[C@H]1C(=O)N[C@@H](CO)C(=O)N[C@@H](CCCCN)C(=O)N[C@H](C(=O)N[C@@H](CC(=O)O)C(=O)N[C@@H](CC(C)C)C(=O)N1CCC[C@H]1C(=O)N[C@@H](CCCNC(=N)N)C(=O)O)C(C)C` [SOR-C27] (H-EGKLSSNDTEGGLCKEFLHPSKVDLPR-OH) the solubility [1] was “completely soluble in all solutions and under all conditions”, the “reduction of maximum TRPV6 current amplitude” value (human TRPV6 channels; 65.2 nM, mean ± SEM) was 17±4% and the “reduction of maximum TRPV6 current amplitude” value (human TRPV6 channels; 326 nM, mean ± SEM) was 27±5%. For the same molecule, the “reduction of maximum TRPV6 current amplitude” value (human TRPV6 channels; 652 nM, mean ± SEM) was 31±5%, the “reduction of maximum TRPV6 current amplitude” value (human TRPV6 channels; 20 µM, mean ± SEM) was 34±5% and the Kd (human TRPV6 channels) was 65 ± 1 nM. It also gave an IC50 (human TRPV6 channels; whole-cell patch clamp, 50 ms voltage ramp -110 to +90 mV, dose-response curve, mean ± SEM, b62/b63, read-out: IC50 (Kd) for reduction of TRPV6 current amplitude) of 65 ± 1 nM.

In the case of `Clc1ccc(COC(Cn2ccnc2)c2ccc(Cl)cc2Cl)cc1` (stereo not drawn) [econazole], the “effect on calcium inflow signals and cell proliferation” value [2] is given as “reduced both calcium inflow signals and cell proliferation”.

In the case of `CC/C(=C(\c1ccccc1)c1ccc(OCCN(C)C)cc1)c1ccccc1` [tamoxifen], the “effect on TRPV6 expression and calcium signaling” value (TRPV6) is given as “reduces expression of TRPV6 and calcium signaling”.

In the case of “DCSQDCAACSILARPAELNTETCILECEGKLSSNDTEGGLCKEFLHPSKVDLPR [Soricidin]”, the Activity [3] is given as “Pain/ Cancer” and the “inhibition of TRPV6 calcium channels / calcium uptake” value (TRPV6 channels) is given as “found to inhibit the transient receptor potential of vallinoid type 6 (TRPV6) calcium channels; also recorded: inhibit calcium uptake via TRPV6 channels”.

B1: TRPV6 (protein)
chain: MGPLQGDGGPALGGADVAPRLSPVRVWPRPQAPKEPALHPMGLSLPKEKGLILCLWSKFCRWFQRRESWAQSRDEQNLLQQKRIWESPLLLAAKDNDVQALNKLLKYEDCKVHQRGAMGETALHIAALYDNLEAAMVLMEAAPELVFEPMTSELYEGQTALHIAVVNQNMNLVRALLARRASVSARATGTAFRRSPCNLIYFGEHPLSFAACVNSEEIVRLLIEHGADIRAQDSLGNTVLHILILQPNKTFACQMYNLLLSYDRHGDHLQPLDLVPNHQGLTPFKLAGVEGNTVMFQHLMQKRKHTQWTYGPLTSTLYDLTEIDSSGDEQSLLELIITTKKREARQILDQTPVKELVSLKWKRYGRPYFCMLGAIYLLYIICFTMCCIYRPLKPRTNNRTSPRDNTLLQQKLLQEAYMTPKDDIRLVGELVTVIGAIIILLVEVPDIFRMGVTRFFGQTILGGPFHVLIITYAFMVLVTMVMRLISASGEVVPMSFALVLGWCNVMYFARGFQMLGPFTIMIQKMIFGDLMRFCWLMAVVILGFASAFYIIFQTEDPEELGHFYDYPMALFSTFELFLTIIDGPANYNVDLPFMYSITYAAFAIIATLLMLNLLIAMMGDTHWRVAHERDELWRAQIVATTVMLERKLPRCLWPRSGICGREYGLGDRWFLRVEDRQDLNRQRIQRYAQAFHTRGSEDLDKDSVEKLELGCPFSPHLSLPMPSVSRSTSRSSANWERLRQGTLRRDLRGIINRGLEDGESWEYQI
Molecule B1 has a Kd [4] of 65 nM and a Kd [5] of 14 nM.
